For orientation: MIC means the lowest concentration found to suppress growth. Low readings indicate greater potency, high ones weaker potency.

The values that follow come from ChEMBL document CHEMBL1275575, “Susceptibility of Mycobacterium bovis BCG vaccine strains to antituberculous antibiotics” (Antimicrob Agents Chemother, 2009).

Common to all, as to type: functional
Assay [1] deals with Mycobacterium tuberculosis variant bovis. As to the kind of experiment: Antibacterial activity against Mycobacterium bovis BCG-Connaught.
The test system is the same in assay [2]. Kind of assay: Antibacterial activity against Mycobacterium bovis BCG-Denmark.
The test system is the same in assay [3]. Kind of assay: Antibacterial activity against Mycobacterium bovis BCG-japan.
The test system is the same in assay [4]. Kind of assay: Antibacterial activity against Mycobacterium bovis BCG-Pasteur.
The test system is the same in assay [5]. Kind of assay: Antibacterial activity against Mycobacterium bovis BCG-Glaxo.
Assay [6] shares this test system. As to the kind of experiment: Antibacterial activity against Mycobacterium bovis BCG-Russia.
Assay [7] shares this test system. Kind of assay: Antibacterial activity against Mycobacterium bovis BCG-Moreau.
For assay [8] the test system is unchanged. As to the kind of experiment: Antibacterial activity against Mycobacterium bovis BCG-Connaught by Wayne's indirect method.

In brackets after ≈: the same amount, converted by molar mass.

As to `NNC(=O)c1ccncc1` [ISONIAZID], the MIC in assay [1] was 0.125 µg/mL (≈ 0.911 µM); in assay [2], 0.4 µg/mL (≈ 2.92 µM); in assay [3], 0.06 µg/mL (≈ 0.438 µM); in assay [4], 0.1 µg/mL (≈ 0.729 µM).

On to `CC[C@@H](CO)NCCN[C@@H](CC)CO` [ETHAMBUTOL], for which the MIC came out at 2 µg/mL (≈ 9.79 µM) in assay [1], 2.5 µg/mL (≈ 12.2 µM) in assay [2], 2.5 µg/mL (≈ 12.2 µM) in assay [5] and 2 µg/mL (≈ 9.79 µM) in assay [3].

Take `CN[C@@H]1[C@H](O[C@H]2[C@H](O[C@H]3[C@H](O)[C@@H](O)[C@H](N=C(N)N)[C@@H](O)[C@@H]3N=C(N)N)O[C@@H](C)[C@]2(O)C=O)O[C@@H](CO)[C@H](O)[C@H]1O` [STREPTOMYCIN]: the MIC in assay [1] was 0.25 µg/mL (≈ 0.43 µM); in assay [2], 2 µg/mL (≈ 3.44 µM); in assay [5], 2 µg/mL (≈ 3.44 µM); in assay [3], 0.25 µg/mL (≈ 0.43 µM).

For `CC1COc2c(N3CCN(C)CC3)c(F)cc3c(=O)c(C(=O)O)cn1c23` (stereo unspecified) [OFLOXACIN], the MIC is less than 0.031 µg/mL in assay [1], 1 µg/mL (≈ 2.77 µM) in assay [6], 0.75 µg/mL (≈ 2.08 µM) in assay [2] and 0.75 µg/mL (≈ 2.08 µM) in assay [4].

With `CO[C@H]1/C=C/O[C@@]2(C)Oc3c(C)c(O)c4c(O)c(c(/C=N/N5CCN(C)CC5)c(O)c4c3C2=O)NC(=O)/C(C)=C\C=C\[C@H](C)[C@H](O)[C@@H](C)[C@@H](O)[C@@H](C)[C@H](OC(C)=O)[C@@H]1C` [RIFAMPIN], the MIC in assay [1] is less than 0.031 µg/mL; in assay [2], 0.016 µg/mL (≈ 0.0194 µM); in assay [5], 0.031 µg/mL (≈ 0.0377 µM); in assay [3], 0.063 µg/mL (≈ 0.0766 µM); in assay [4], 0.063 µg/mL (≈ 0.0766 µM).

Turning to `CC[C@H]1OC(=O)[C@H](C)[C@@H](O[C@H]2C[C@@](C)(OC)[C@@H](O)[C@H](C)O2)[C@H](C)[C@@H](O[C@@H]2O[C@H](C)C[C@H](N(C)C)[C@H]2O)[C@](C)(O)C[C@@H](C)C(=O)[C@H](C)[C@@H](O)[C@]1(C)O` [ERYTHROMYCIN], the MIC is 16 µg/mL (≈ 21.8 µM) in assay [1], 128 µg/mL (≈ 174 µM) in assay [7] and 4 µg/mL (≈ 5.45 µM) in assay [4].

Consider `CC[C@H]1OC(=O)[C@H](C)[C@@H](O[C@H]2C[C@@](C)(OC)[C@@H](O)[C@H](C)O2)[C@H](C)[C@@H](O[C@@H]2O[C@H](C)C[C@H](N(C)C)[C@H]2O)[C@](C)(OC)C[C@@H](C)C(=O)[C@H](C)[C@@H](O)[C@]1(C)O` [CLARITHROMYCIN], for which the MIC in assay [1] is 0.25 µg/mL (≈ 0.334 µM); in assay [7], 2 µg/mL (≈ 2.67 µM); in assay [2], 0.07 µg/mL (≈ 0.0936 µM); in assay [5] it was 0.15 µg/mL (≈ 0.201 µM); in assay [4], 0.3 µg/mL (≈ 0.401 µM).

In assay [1], `NCC[C@H](O)C(=O)N[C@@H]1C[C@H](N)[C@@H](O[C@H]2O[C@H](CN)[C@@H](O)[C@H](O)[C@H]2O)[C@H](O)[C@H]1O[C@H]1O[C@H](CO)[C@@H](O)[C@H](N)[C@H]1O` [AMIKACIN] yielded an MIC of 0.125 µg/mL (≈ 0.213 µM).

`NC[C@H]1O[C@H](O[C@H]2[C@H](O)[C@@H](O[C@H]3O[C@H](CO)[C@@H](O)[C@H](N)[C@H]3O)[C@H](N)C[C@@H]2N)[C@H](O)[C@@H](O)[C@@H]1O` [KANAMYCIN] gave an MIC in assay [1] of 1 µg/mL (≈ 2.06 µM).

For `CCc1cc(C(N)=S)ccn1` [ETHIONAMIDE], it took 4 µg/mL (≈ 24.1 µM) to inhibit growth in assay [1] (MIC).

On to `CC[C@H]1OC(=O)[C@H](C)[C@@H](O[C@H]2C[C@@](C)(OC)[C@@H](O)[C@H](C)O2)[C@H](C)[C@@H](O[C@@H]2O[C@H](C)C[C@H](N(C)C)[C@H]2O)[C@](C)(O)C[C@@H](C)CN(C)[C@H](C)[C@@H](O)[C@]1(C)O` [AZITHROMYCIN], for which the MIC is 16 µg/mL (≈ 21.4 µM) in assay [1] and 1 µg/mL (≈ 1.34 µM) in assay [4].

With `CO[C@H]1/C=C/O[C@@]2(C)Oc3c(C)c(O)c4c(c3C2=O)C2=NC3(CCN(CC(C)C)CC3)NC2=C(NC(=O)/C(C)=C\C=C\[C@H](C)[C@H](O)[C@@H](C)[C@@H](O)[C@@H](C)[C@H](OC(C)=O)[C@@H]1C)C4=O` [RIFABUTIN], the MIC in assay [1] worked out at 0.063 µg/mL (≈ 0.0744 µM); in assay [2] it was 0.016 µg/mL (≈ 0.0189 µM); in assay [5], 0.016 µg/mL (≈ 0.0189 µM); in assay [3] it was 0.063 µg/mL (≈ 0.0744 µM); in assay [4] it was 0.063 µg/mL (≈ 0.0744 µM).

On to `O=C(O)c1cn(C2CC2)c2cc(N3CCNCC3)c(F)cc2c1=O` [CIPROFLOXACIN], for which the MIC in assay [1] was found to be 0.125 µg/mL (≈ 0.377 µM).

`NC(=O)c1cnccn1` [PYRAZINAMIDE]: the MIC in assay [8] was more than 800 µg/mL.
